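Assay format: 96-well plates, 48-hour exposure. GI50 = concentration required for 50% inhibition of growth.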 Active and inactive are the calls of the source. Cut-off read from the data, not from the text of the source: active = GI50 up to about 1.1 µM and inactive = higher.
Tests used:
Test in all cases: NCI tumour cell line growth inhibition, 48 h
A498 = test system: A498
A549 = test system: A549
CAKI-1 = test system: CAKI-1
CCRF-CEM = test system: CCRF-CEM
COLO 205 = test system: COLO 205
DLD-1 = test system: DLD-1
DMS-114 = test system: DMS-114
DMS-273 = test system: DMS-273
EKVX = test system: EKVX
HCC 2998 = test system: HCC 2998
HCT-116 = test system: HCT-116
HCT-15 = test system: HCT-15
HL-60 = test system: HL-60
HOP-18 = test system: HOP-18
HOP-62 = test system: HOP-62
HOP-92 = test system: HOP-92
HT-29 = test system: HT-29
IGROV-1 = test system: IGROV-1
K562 = test system: K562
KM-20L2 = test system: KM-20L2
KM12 = test system: KM12
M19-MEL = test system: M19-MEL
MCF7 = test system: MCF7
MOLT-4 = test system: MOLT-4
Malme-3M = test system: Malme-3M
NCI-H226 = test system: NCI-H226
NCI-H23 = test system: NCI-H23
NCI-H460 = test system: NCI-H460
NCI-H522 = test system: NCI-H522
NCI/ADR-RES = test system: NCI/ADR-RES
OVCAR-3 = test system: OVCAR-3
OVCAR-4 = test system: OVCAR-4
OVCAR-5 = test system: OVCAR-5
OVCAR-8 = test system: OVCAR-8
RPMI-8226 = test system: RPMI-8226
RXF 393 = test system: RXF 393
SF-268 = test system: SF-268
SF-295 = test system: SF-295
SF-539 = test system: SF-539
SK-MEL-28 = test system: SK-MEL-28
SK-MEL-2 = test system: SK-MEL-2
SK-MEL-5 = test system: SK-MEL-5
SK-OV-3 = test system: SK-OV-3
SN12C = test system: SN12C
SNB-19 = test system: SNB-19
SNB-75 = test system: SNB-75
SNB-78 = test system: SNB-78
SW-620 = test system: SW-620
U-251 = test system: U-251
UACC-257 = test system: UACC-257
UACC-62 = test system: UACC-62
UO-31 = test system: UO-31
XF498 = test system: XF498
786-0 = test system: 786-0
ACHN = test system: ACHN
LOX IMVI = test system: LOX IMVI
LXFL 529 = test system: LXFL 529
M14 = test system: M14
TK-10 = test system: TK-10

## COC(=O)[C@@H]1c2cc3c(c(O)c2[C@@H](OC)C[C@@]1(C)O)C(=O)c1c(O)cc2c(c1C3=O)OC1O[C@@]2(C)[C@H](O)[C@@H](N(C)C)[C@@H]1O
A498
  GI50: 0.257 µM (active)
A549
  GI50: 0.435 µM (active)
CAKI-1
  GI50: 0.26 µM (active)
CCRF-CEM
  GI50: 0.273 µM (active)
COLO 205
  GI50: 0.257 µM (active)
DLD-1
  GI50: 1.86 µM (inactive)
DMS-114
  GI50: 0.217 µM (active)
DMS-273
  GI50: 0.118 µM (active)
EKVX
  GI50: 0.345 µM (active)
HCC 2998
  GI50: 0.251 µM (active)
HCT-116
  GI50: 0.261 µM (active)
HCT-15
  GI50: 0.597 µM
HL-60
  GI50: 0.142 µM (active)
HOP-18
  GI50: 0.14 µM (active)
HOP-62
  GI50: 0.198 µM (active)
HOP-92
  GI50: 0.0764 µM (active)
HT-29
  GI50: 0.355 µM (active)
IGROV-1
  GI50: 0.291 µM (active)
K562
  GI50: 0.322 µM (active)
KM-20L2
  GI50: 0.175 µM (active)
KM12
  GI50: 0.379 µM (active)
M19-MEL
  GI50: 0.266 µM (active)
MCF7
  GI50: 2.72 µM (inactive)
MOLT-4
  GI50: 0.143 µM (active)
Malme-3M
  GI50: 0.506 µM (active)
NCI-H226
  GI50: 0.301 µM (active)
NCI-H23
  GI50: 0.428 µM (active)
NCI-H460
  GI50: 0.129 µM (active)
NCI-H522
  GI50: 0.445 µM (active)
NCI/ADR-RES
  GI50: 2.06 µM (inactive)
OVCAR-3
  GI50: 0.361 µM (active)
OVCAR-4
  GI50: 0.395 µM (active)
OVCAR-5
  GI50: 0.508 µM (active)
OVCAR-8
  GI50: 0.234 µM (active)
RPMI-8226
  GI50: 0.192 µM (active)
RXF 393
  GI50: 0.381 µM (active)
SF-268
  GI50: 0.528 µM (active)
SF-295
  GI50: 0.213 µM (active)
SF-539
  GI50: 2.69 µM (inactive)
SK-MEL-28
  GI50: 0.667 µM (active)
SK-MEL-2
  GI50: 0.28 µM (active)
SK-MEL-5
  GI50: 0.364 µM (active)
SK-OV-3
  GI50: 0.522 µM (active)
SN12C
  GI50: 0.254 µM (active)
SNB-19
  GI50: 0.337 µM (active)
SNB-75
  GI50: 0.245 µM (active)
SNB-78
  GI50: 0.552 µM (active)
SW-620
  GI50: 0.193 µM (active)
U-251
  GI50: 0.307 µM (active)
UACC-257
  GI50: 0.337 µM (active)
UACC-62
  GI50: 0.223 µM (active)
UO-31
  GI50: 1.14 µM (inactive)
XF498
  GI50: 0.179 µM (active)

## c1c[nH]c(Cc2nc(Cc3c[nH]cn3)c[nH]2)n1
786-0
  GI50: 11.7 µM (inactive)
A498
  GI50: 9.79 µM (inactive)
A549
  GI50: 3.96 µM (inactive)
ACHN
  GI50: 3.51 µM (inactive)
CAKI-1
  GI50: 27.9 µM (inactive)
CCRF-CEM
  GI50: 5.06 µM (inactive)
COLO 205
  GI50: 5.37 µM (inactive)
DLD-1
  GI50: 4.22 µM (inactive)
DMS-114
  GI50: 16.3 µM (inactive)
DMS-273
  GI50: 15.2 µM (inactive)
EKVX
  GI50: 4.49 µM (inactive)
HCC 2998
  GI50: 2.74 µM (inactive)
HCT-116
  GI50: 29.5 µM (inactive)
HCT-15
  GI50: 4.58 µM
HL-60
  GI50: 3.66 µM (inactive)
HOP-18
  GI50: 8.28 µM (inactive)
HOP-62
  GI50: 17.5 µM (inactive)
HOP-92
  GI50: 22 µM (inactive)
HT-29
  GI50: 4.12 µM (inactive)
IGROV-1
  GI50: 16.5 µM (inactive)
K562
  GI50: 3.37 µM (inactive)
KM-20L2
  GI50: 0.946 µM (active)
KM12
  GI50: 7.64 µM (inactive)
LOX IMVI
  GI50: 16.5 µM (inactive)
LXFL 529
  GI50: 6.7 µM (inactive)
M14
  GI50: 10.5 µM (inactive)
M19-MEL
  GI50: 15.4 µM (inactive)
MOLT-4
  GI50: 3.48 µM (inactive)
Malme-3M
  GI50: 5.07 µM (inactive)
NCI-H226
  GI50: 11.2 µM (inactive)
NCI-H23
  GI50: 34.8 µM (inactive)
NCI-H460
  GI50: 24 µM (inactive)
NCI-H522
  GI50: 12.2 µM (inactive)
OVCAR-3
  GI50: 55.8 µM (inactive)
OVCAR-4
  GI50: 4.45 µM (inactive)
OVCAR-5
  GI50: 1.53 µM (inactive)
OVCAR-8
  GI50: 33.5 µM (inactive)
RPMI-8226
  GI50: 10.1 µM (inactive)
SF-268
  GI50: 4.65 µM (inactive)
SF-295
  GI50: 35.6 µM (inactive)
SF-539
  GI50: 27.2 µM (inactive)
SK-MEL-28
  GI50: 28.2 µM (inactive)
SK-MEL-2
  GI50: 13.7 µM (inactive)
SK-MEL-5
  GI50: 20.7 µM (inactive)
SK-OV-3
  GI50: 9.29 µM (inactive)
SN12C
  GI50: 29.6 µM (inactive)
SNB-19
  GI50: 22.5 µM (inactive)
SNB-75
  GI50: 35.6 µM (inactive)
SW-620
  GI50: 6.73 µM (inactive)
TK-10
  GI50: 67.5 µM (inactive)
U-251
  GI50: 34 µM (inactive)
UACC-62
  GI50: 19.8 µM (inactive)
XF498
  GI50: 25.8 µM (inactive)

Source: ChEMBL document CHEMBL1201862, “PubChem BioAssay data set” (2004)
